{"source": "ChEMBL document CHEMBL1201862", "about": "“PubChem BioAssay data set” (2004)", "key": {"[1]": {"target": "ATP-dependent molecular chaperone HSP82 (Candida albicans (strain WO-1) (Yeast), UniProt C4YTQ8)", "sequence (C4YTQ8 whole entry)": "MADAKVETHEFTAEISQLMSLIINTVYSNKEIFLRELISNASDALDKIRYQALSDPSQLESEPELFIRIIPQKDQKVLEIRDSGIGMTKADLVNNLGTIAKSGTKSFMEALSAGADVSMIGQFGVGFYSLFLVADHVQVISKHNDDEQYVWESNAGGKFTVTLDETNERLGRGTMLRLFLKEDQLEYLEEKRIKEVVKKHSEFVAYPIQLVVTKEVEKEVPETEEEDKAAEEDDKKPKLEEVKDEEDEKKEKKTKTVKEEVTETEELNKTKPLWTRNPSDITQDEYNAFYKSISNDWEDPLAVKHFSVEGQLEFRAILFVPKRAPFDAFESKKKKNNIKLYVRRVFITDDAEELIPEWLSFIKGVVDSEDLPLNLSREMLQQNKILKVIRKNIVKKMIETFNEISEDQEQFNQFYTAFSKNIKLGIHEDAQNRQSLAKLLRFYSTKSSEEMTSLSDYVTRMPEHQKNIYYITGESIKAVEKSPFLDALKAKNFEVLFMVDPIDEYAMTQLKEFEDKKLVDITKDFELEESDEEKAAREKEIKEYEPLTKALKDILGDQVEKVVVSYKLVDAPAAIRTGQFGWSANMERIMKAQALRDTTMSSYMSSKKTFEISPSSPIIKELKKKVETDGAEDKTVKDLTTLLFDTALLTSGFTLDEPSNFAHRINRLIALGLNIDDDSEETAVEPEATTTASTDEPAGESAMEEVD", "test": "loss of DOC-induced GRE-beta-galactosidase reporter signal, dose response, Hsp90 inhibitor project, S. cerevisiae, luminescence (AID 2400);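 further: beta-galactosidase luminescence from glucocorticoid response element reporter as proxy for Hsp90 function; inhibitor potency where signal loss means Hsp90 inhibition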", "format": "functional, cell-based"}, "INS1": {"tested_on": "INS1", "test": "beta cell apoptosis inhibitors, cytokine rescue, dose response, luminescence, retest (AID 449756);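 further: cell death triggered by IL-1 beta plus TNF-alpha plus IFN-gamma mixture; protective hits raise ATP signal compared with cytokine alone wells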", "format": "functional, cell-based", "settings": "Rattus norvegicus"}, "cells [2]": {"test": "cells", "format": "functional, cell-based"}, "[3]": {"test": "C. albicans growth with fluconazole, confirmation, fluorescence, retest (AID 2467)", "format": "functional, cell-based"}, "[4]": {"target": "Photoreceptor-specific nuclear receptor (Homo sapiens, UniProt Q9Y5X4)", "sequence (Q9Y5X4 whole entry)": "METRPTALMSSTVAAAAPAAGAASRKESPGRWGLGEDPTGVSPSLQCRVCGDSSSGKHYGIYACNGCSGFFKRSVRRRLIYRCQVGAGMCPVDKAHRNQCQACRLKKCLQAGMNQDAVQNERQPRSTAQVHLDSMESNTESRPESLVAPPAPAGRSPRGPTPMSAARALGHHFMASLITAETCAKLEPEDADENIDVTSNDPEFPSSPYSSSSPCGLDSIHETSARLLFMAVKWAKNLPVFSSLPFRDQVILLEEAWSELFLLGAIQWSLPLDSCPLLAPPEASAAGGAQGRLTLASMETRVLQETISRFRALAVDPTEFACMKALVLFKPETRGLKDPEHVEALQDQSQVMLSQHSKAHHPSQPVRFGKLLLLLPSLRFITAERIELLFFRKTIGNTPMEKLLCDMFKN", "format": "functional, cell-based"}, "[5]": {"target": "T1, Serine/threonine-protein phosphatase (Candida dubliniensis (strain CD36 / CBS 7987 / NCPF 3949 / NRRLY-17841) (Yeast), UniProt B9W6M3)", "T1 sequence (B9W6M3 whole entry)": "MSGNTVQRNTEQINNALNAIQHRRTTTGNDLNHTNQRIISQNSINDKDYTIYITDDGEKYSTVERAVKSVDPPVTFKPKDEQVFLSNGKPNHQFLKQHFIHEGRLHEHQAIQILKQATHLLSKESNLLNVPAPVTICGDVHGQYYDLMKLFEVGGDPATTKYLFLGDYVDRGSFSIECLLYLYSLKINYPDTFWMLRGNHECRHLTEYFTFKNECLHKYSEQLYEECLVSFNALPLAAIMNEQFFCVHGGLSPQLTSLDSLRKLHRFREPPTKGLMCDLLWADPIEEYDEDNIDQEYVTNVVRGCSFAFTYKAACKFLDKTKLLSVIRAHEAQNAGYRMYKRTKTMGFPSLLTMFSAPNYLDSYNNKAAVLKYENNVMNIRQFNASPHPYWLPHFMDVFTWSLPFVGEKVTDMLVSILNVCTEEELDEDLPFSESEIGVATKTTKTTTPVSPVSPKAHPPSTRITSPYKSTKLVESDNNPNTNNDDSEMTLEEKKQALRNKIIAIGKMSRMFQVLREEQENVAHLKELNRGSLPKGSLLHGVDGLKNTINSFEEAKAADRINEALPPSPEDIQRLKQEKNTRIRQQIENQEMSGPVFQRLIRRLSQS", "test": "calcineurin pathway inhibitors in yeast reporter, dose response, S. cerevisiae, CDRE-lacZ, luminescence, secondary (AID 2388);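 further: yeast reporter cells carrying a calcineurin-responsive lacZ construct stimulated with calcium chloride; luminescent beta-galactosidase reporter signal in whole cells rather than isolated phosphatase activity; potency for inhibition where a drop in reporter signal means calcineurin blockade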", "format": "functional, cell-based"}, "[6]": {"test": "NIH-3T3 fibroblast cytotoxicity, dose response, cytotoxicity control, cell-based, fluorescence, Alamar Blue, secondary assay (AID 2327);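 further: NIH-3T3 mouse fibroblasts cultured with fluconazole at 8 µg/mL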", "format": "functional"}, "cells [7]": {"test": "cells", "format": "functional, cell-based", "remark": "listed apart in the source"}, "Vero": {"tested_on": "Vero", "test": "Vero cell toxicity, dose response, cytotoxicity control, plate reader, cherry-pick samples (AID 687020)", "format": "functional, cell-based", "settings": "Chlorocebus sabaeus"}, "[8]": {"target": "T2, DNA repair and recombination protein RAD54-like (Homo sapiens, UniProt Q92698)", "T2 sequence (Q92698 whole entry)": "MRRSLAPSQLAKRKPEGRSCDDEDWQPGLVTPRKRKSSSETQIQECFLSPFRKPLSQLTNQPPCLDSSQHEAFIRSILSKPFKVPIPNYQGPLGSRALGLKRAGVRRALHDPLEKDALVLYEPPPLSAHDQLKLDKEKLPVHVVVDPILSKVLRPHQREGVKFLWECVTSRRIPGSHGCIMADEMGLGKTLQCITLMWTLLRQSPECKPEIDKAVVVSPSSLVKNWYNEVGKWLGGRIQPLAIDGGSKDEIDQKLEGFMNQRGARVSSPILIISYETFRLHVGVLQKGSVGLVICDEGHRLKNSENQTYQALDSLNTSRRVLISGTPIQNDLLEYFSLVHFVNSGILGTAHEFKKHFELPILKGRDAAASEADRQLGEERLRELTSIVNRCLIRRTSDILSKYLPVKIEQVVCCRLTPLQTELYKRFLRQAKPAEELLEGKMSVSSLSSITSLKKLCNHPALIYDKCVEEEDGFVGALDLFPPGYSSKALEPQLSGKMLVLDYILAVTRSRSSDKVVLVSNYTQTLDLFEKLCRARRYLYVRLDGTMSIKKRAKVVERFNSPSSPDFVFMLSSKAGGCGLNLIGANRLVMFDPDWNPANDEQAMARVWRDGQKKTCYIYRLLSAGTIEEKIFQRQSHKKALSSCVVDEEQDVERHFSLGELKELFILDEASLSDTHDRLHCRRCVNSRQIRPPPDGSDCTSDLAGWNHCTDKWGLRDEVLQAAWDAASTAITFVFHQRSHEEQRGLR", "test": "inhibitors of human RAD54 branch migration, confirmation, biochemical, fluorescence, cherry-picked samples, dose series (AID 651657)", "format": "functional"}, "[9]": {"target": "DNA repair protein RAD52 homolog (Homo sapiens, UniProt P43351)", "sequence (P43351 whole entry)": "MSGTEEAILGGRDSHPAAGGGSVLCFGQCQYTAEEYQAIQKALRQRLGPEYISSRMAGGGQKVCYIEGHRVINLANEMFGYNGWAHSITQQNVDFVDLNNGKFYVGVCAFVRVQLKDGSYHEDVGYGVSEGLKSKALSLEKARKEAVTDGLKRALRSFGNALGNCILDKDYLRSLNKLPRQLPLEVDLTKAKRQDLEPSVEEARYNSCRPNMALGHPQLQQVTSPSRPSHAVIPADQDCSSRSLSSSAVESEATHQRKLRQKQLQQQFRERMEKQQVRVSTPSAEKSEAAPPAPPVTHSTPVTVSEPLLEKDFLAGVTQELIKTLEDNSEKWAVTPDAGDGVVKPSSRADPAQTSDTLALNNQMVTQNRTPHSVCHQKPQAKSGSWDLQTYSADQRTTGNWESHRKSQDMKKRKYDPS", "format": "functional, biochemical"}, "[10]": {"test": "ZM109 Env clade C HIV-1 fusion inhibitors, dose response, HeLa effector, CEM target cells, luciferase, cherry-pick (AID 652058)", "format": "functional, cell-based"}, "[11]": {"test": "off-target signal loss in HeLa-CEM21 co-culture – HeLa F-luc CTL cells, cherry-picked, counter-screen for HIV-1 Env fusion inhibitor project, dose response (AID 652040);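 further: potency for signal decrease marking cytotoxic or nonspecific inhibition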", "format": "functional, cell-based"}, "[12]": {"test": "inhibitors of clade B AD8 Env fusion, dose response, cell-based, cherry-pick (AID 652062);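 further: potency is for inhibitors of fusion seen as a drop in luminescence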", "format": "functional"}, "HEK293 [13]": {"tested_on": "HEK293", "test": "cells", "settings": "Homo sapiens"}, "HEK293 [14]": {"tested_on": "HEK293", "test": "cells", "settings": "Homo sapiens", "remark": "listed apart in the source"}, "[15]": {"test": "inhibitors of HIV Env-driven cell fusion, dose response, cherry-pick (AID 652057)", "format": "functional, cell-based"}, "[16]": {"target": "Luciferin 4-monooxygenase (Photinus pyralis, UniProt P08659)", "sequence (P08659 whole entry)": "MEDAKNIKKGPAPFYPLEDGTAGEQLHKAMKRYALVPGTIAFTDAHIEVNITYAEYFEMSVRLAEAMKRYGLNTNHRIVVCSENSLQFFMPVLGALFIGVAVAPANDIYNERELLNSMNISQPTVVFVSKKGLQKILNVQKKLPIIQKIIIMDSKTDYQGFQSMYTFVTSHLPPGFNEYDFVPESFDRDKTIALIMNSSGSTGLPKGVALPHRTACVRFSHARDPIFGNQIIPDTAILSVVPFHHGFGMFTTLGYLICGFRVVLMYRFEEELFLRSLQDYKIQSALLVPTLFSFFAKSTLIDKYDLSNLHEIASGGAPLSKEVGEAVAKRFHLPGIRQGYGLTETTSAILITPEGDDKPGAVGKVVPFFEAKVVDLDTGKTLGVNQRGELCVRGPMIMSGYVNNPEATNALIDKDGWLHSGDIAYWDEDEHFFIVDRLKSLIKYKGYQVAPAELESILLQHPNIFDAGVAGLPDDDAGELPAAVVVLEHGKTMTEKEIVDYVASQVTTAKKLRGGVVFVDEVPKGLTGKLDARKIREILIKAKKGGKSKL", "test": "firefly luciferase enzyme inhibitors, dose response, biochemical, luminescence (AID 1891)"}, "Cytochrome P450 2D6": {"target": "Cytochrome P450 2D6 (Homo sapiens, UniProt P10635)", "sequence (P10635 whole entry)": "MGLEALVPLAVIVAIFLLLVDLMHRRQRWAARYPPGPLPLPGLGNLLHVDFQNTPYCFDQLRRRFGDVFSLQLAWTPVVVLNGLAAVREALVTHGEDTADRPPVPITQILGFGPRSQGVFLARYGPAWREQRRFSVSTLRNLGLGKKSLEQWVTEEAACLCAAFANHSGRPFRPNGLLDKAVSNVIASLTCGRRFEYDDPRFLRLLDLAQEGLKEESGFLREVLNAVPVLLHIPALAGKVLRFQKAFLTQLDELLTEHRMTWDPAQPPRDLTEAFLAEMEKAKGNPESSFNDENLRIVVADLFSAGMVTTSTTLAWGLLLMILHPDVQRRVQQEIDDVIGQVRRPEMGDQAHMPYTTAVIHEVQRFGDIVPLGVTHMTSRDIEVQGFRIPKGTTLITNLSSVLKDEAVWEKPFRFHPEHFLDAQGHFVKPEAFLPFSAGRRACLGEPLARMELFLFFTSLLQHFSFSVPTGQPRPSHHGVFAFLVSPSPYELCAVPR"}, "[17]": {"test": "Luminescence Cell-Based Dose Confirmation HTS to Identify Inhibitors of Platelet Dense Granule Release. [Related pubchem assays: 1663 (Primary HTS), 1678 (Summary of Project)]", "format": "functional"}, "[18]": {"test": "cytotoxicity toward NIH3T3 fibroblasts, dose response, counter-screen, cell-based, ATP luminescence, mouse fibroblasts (AID 2010);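 further: cells exposed to compound for about 90 hours before reading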", "format": "functional"}, "[19]": {"test": "inhibitors of intracellular T. cruzi replication, confirmation, NIH3T3 host cells, beta-gal luminescence (AID 2044);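 further: luminescent beta-galactosidase reporter signal from transgenic T. cruzi replicating inside host cells; inhibitors lower the luminescence signal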", "format": "functional, cell-based"}, "[20]": {"target": "T3, Scavenger receptor class B member 1 (Mus musculus, UniProt Q61009)", "T3 sequence (Q61009 whole entry)": "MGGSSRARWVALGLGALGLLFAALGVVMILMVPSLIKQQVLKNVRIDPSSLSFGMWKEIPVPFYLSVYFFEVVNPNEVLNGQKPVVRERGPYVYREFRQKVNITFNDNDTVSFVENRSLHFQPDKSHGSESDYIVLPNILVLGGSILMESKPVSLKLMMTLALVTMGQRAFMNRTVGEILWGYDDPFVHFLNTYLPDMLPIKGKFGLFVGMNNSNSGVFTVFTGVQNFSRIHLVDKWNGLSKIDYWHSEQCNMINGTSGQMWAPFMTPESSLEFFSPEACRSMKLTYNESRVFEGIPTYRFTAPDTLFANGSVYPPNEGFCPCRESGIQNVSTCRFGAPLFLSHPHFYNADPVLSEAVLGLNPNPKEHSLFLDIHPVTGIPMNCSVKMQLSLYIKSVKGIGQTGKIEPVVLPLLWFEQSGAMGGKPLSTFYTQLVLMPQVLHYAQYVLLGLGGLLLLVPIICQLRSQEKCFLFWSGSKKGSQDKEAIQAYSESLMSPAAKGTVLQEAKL", "test": "inhibitors of SR-BI-mediated HDL uptake, dose response, cell-based, ldlA[mSR-BI] CHO, DiI fluorescence, dry powder, set 10 (AID 624029)", "format": "functional"}, "Beta-lactamase [21]": {"target": "Beta-lactamase (Salmonella choleraesuis (strain SC-B67), UniProt Q5J463)", "sequence (Q5J463 whole entry)": "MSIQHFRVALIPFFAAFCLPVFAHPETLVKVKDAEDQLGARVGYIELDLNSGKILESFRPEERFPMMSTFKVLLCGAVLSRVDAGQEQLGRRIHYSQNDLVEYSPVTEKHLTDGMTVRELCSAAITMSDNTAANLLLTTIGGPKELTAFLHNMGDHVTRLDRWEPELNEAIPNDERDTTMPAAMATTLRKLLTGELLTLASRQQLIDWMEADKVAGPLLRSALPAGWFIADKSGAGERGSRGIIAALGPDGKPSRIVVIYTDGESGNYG"}, "Beta-lactamase [22]": {"target": "Beta-lactamase (Pseudomonas aeruginosa, UniProt Q79MP6)", "sequence (Q79MP6 whole entry)": "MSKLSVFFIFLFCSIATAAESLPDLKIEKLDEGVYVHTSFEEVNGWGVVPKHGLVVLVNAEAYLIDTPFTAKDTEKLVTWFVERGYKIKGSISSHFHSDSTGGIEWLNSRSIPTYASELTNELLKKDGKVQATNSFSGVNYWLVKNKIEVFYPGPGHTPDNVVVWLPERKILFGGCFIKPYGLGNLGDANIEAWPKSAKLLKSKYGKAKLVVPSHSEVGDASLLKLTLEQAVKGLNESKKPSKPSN"}, "Troponin, cardiac muscle": {"target": "Troponin, cardiac muscle (Homo sapiens, UniProt P19429+P45379+P63316)", "test": "Fluorescence-based biochemical high throughput dose response assay for activators of the calcium sensitivity of cardiac Regulated Thin Filaments (RTF). [Related pubchem assays (depositor defined):AID493008, AID493018, AID504382, AID504383]", "format": "protein-complex assay"}}, "note": "Activity calls are given as the source filed them.", "data": [{"smiles": "CC(=O)NC(c1cccs1)c1cc([N+](=O)[O-])c2cccnc2c1O", "note": "(stereo unspecified)", "values": [{"measurement": "EC50", "setting": "[1]", "value": "> 150 µM (inactive)"}, {"measurement": "AC50", "setting": "INS1", "value": "4.94 µM (active)"}, {"measurement": "EC50", "setting": "cells [2]", "value": "51.5 µM (active)"}, {"measurement": "EC50", "setting": "[3]", "value": "757 nM (active)"}, {"measurement": "IC50", "setting": "[4]", "value": "4.71 µM (active)"}, {"measurement": "EC50", "setting": "[5]", "value": "> 180 µM (inactive)"}, {"measurement": "EC50", "setting": "[6]", "value": "46.7 µM (inconclusive)"}, {"measurement": "EC50", "setting": "cells [7]", "value": "> 350 µM (not active)"}]}, {"smiles": "CC(C)C[C@@H](COc1ccccc1)N1CCN(Cc2ccccc2)CCC1=O", "values": [{"measurement": "AC50", "setting": "Vero", "value": "33.5 µM (active)"}]}, {"smiles": "CN(C)CCCNc1nc2cc(-c3ccc(F)cc3)sc2c(=O)n1C", "values": [{"measurement": "AC50", "setting": "[8]", "value": "33.8 µM (active)"}, {"measurement": "AC50", "setting": "[9]", "value": "7.84 µM (active)"}]}, {"smiles": "COc1ccc(NC(=O)C2CCCN2S(=O)(=O)c2ccc3c(c2)CCC(=O)N3)cc1Cl", "note": "(stereo unspecified)", "values": [{"measurement": "AC50", "setting": "[10]", "value": "3.18 µM (active)"}, {"measurement": "AC50", "setting": "[11]", "value": "14.8 µM (active)"}, {"measurement": "AC50", "setting": "[12]", "value": "17.3 µM (active)"}, {"measurement": "EC50", "setting": "HEK293 [13]", "value": "> 59.6 µM (inactive)"}, {"measurement": "EC50", "setting": "HEK293 [14]", "value": "> 59.6 µM (inactive)"}, {"measurement": "AC50", "setting": "[15]", "value": "7.43 µM (active)"}]}, {"smiles": "Cc1ccc(N2C(=O)CC(c3ccsc3)C3=C2CC(C)(C)CC3=O)cc1", "note": "(stereo unspecified)", "values": [{"measurement": "AC50", "setting": "[10]", "value": "3.55 µM (active)"}, {"measurement": "EC50", "setting": "[16]", "value": "> 112 µM (not active)"}, {"measurement": "AC50", "setting": "[11]", "value": "5.07 µM (active)"}, {"measurement": "AC50", "setting": "[12]", "value": "18.9 µM (active)"}, {"measurement": "AC50", "setting": "Cytochrome P450 2D6", "value": "39.8 µM (inconclusive)"}, {"measurement": "AC50", "setting": "[15]", "value": "3.24 µM (active)"}, {"measurement": "EC50", "setting": "[17]", "value": "> 112 µM (not active)"}]}, {"smiles": "COc1ccc2ccccc2c1-c1sc(Nc2ccccc2)n[n+]1-c1ccc(F)cc1", "values": [{"measurement": "EC50", "setting": "[18]", "value": "> 30 µM (not active)"}, {"measurement": "EC50", "setting": "[19]", "value": "707 nM (active)"}, {"measurement": "AC50", "setting": "Vero", "value": "31.6 µM (active)"}]}, {"smiles": "CC(C)NC(=O)Nc1ccc2c(c1)C(=O)N([C@H](C)CO)C[C@H](C)[C@H](CN(C)S(=O)(=O)c1ccc(Cl)cc1)O2", "values": [{"measurement": "AC50", "setting": "[20]", "value": "57.4 µM (active)"}]}, {"smiles": "COc1ccc(/C=C2/SC(c3ccc(C)cc3)=NC2=O)cc1OC", "values": [{"measurement": "IC50", "setting": "Beta-lactamase [21]", "value": "> 59.6 µM (inactive)"}, {"measurement": "IC50", "setting": "Beta-lactamase [22]", "value": "> 59.6 µM (inactive)"}, {"measurement": "EC50", "setting": "Troponin, cardiac muscle", "value": "742 nM (active)"}]}]}
